The subject of assay [1] is H110D aminopeptidase M-like activity. It is filed as biochemical, Haemonchus contortus. From the text: (§1) α-amino acylpeptide hydrolase (microsomal) aminopeptidase activities in H110D preparations were characterised by assays, in solution, using L-leucine, methionine, phenylalanine, α-glutamic acid and lysine p-nitroanilides (pNA). All the amino acid p-nitroanilide substrates (except α-glutamic acid) were obtained from Sigma, Poole, Dorset UK, α-glutamic acid was from Fluka, Dorset, UK. Single hydrophobic (leucine- or phenylalanine-) and charged (α-glutamic acid-) amino acid pNA known to be substrates for mammalian aminopeptidase-M (ApM) and -A (ApA) respectively, were chosen to measure the effect of enzyme inhibitors and serum inhibition on H110D aminopeptidase activities.
(§2) Micro-ELISA plate (Dynatech Immulon 1, Virginia, USA) wells were each filled with 250 μl of either 50 mM HEPES or MOPS pH 7 plus 1-10 μl of the fraction to be assayed. The plates were then pre-incubated at 37° C. for 10 minutes prior to the addition of 10 μl of 25 mM amino acid p-nitroanilide substrate per well. The time zero optical density (OD) at 405 nm was then measured using an ELISA plate reader and the plates were then incubated at 37° C. for 15-30 minutes. The final OD reading was then taken as before and the OD change per minute per milligram of protein calculated.
(§3) The method used for the enzyme assay was as described in (a) above except that the inhibitors were added to the 250 μl of buffer plus 10 μl of 1 mg/ml ConA H110D and pre-incubated for 10 minutes at 37° C. prior to addition of the substrates (leucine-pNA or α-glutamic acid-pNA). The percentage inhibition was calculated as follows [formula]
(§4) Where x=the ΔOD/min of the enzyme with no inhibitor added and y=ΔOD/min of the enzyme plus inhibitor. Nine compounds with differing enzyme class inhibition were tested individually: Amastatin, Bestatin (metalloprotease, aminopeptidase), 1,10 phenanthroline, EDTA (metalloprotease), phosphoramidon (metalloprotease, thermolysin, collagenase), Aproptinin (serine protease), Pepstatin (aspartic protease), PMSF (serine and cysteine protease) and E64 (cysteine protease). Amastatin, bestatin, 1,10 phenanthroline, PMSF and pepstatin were obtained from Sigma, Dorset, UK. All the other inhibitors were obtained from Boehringer-Mannheim.

Assay [2] has as its system H110D aminopeptidase A-like activity. The assay is described as follows: Inhibitor sensitivity of ConA H110D, α-glutamic acid-pNA substrate. It is filed as biochemical, Haemonchus contortus.
Excerpt: as §1, §2, §3
as §4, with “Boehringer-Mannheim. Each inhibitor was used at two concentrations equal to or greater than the maximum concentrations recommended by Boehringer-Mannheim.” for “Boehringer-Mannheim.”

The structures appear in SMILES notation. Where two headings read alike, the source gives them in different places.

In the case of `CC(C)C[C@H](NP(=O)(O)O[C@@H]1O[C@@H](C)[C@H](O)[C@@H](O)[C@H]1O)C(=O)N[C@@H](Cc1c[nH]c2ccccc12)C(=O)O` [Phosphoramidon, phosphoramidon], the “PERCENTAGE INHIBITION Leucine-p-nitroanilide substrate” value in assay [1] (inhibitor 10 μM, ConA H110D) is reported as 0.8%; in assay [1] (inhibitor 50 μM, ConA H110D), 7%. The “PERCENTAGE INHIBITION α-glutamic acid-p-nitroanilide substrate” value in assay [2] (inhibitor 10 μM) and in assay [2] (inhibitor 50 μM) was 1% throughout.

On to `c1cnc2c(c1)ccc1cccnc12` [1, 10 phenanthroline, 1,10 phenanthroline], for which the “Ranking of inhibitors of H110D aminopeptidase activities” value in assay [1] (5 mM) is “most effective inhibitor”. In addition, the “PERCENTAGE INHIBITION Leucine-p-nitroanilide substrate” value was found to be 78% in assay [1] (inhibitor 1 mM, ConA H110D) and 87% in assay [1] (inhibitor 10 mM, ConA H110D). The results for the “PERCENTAGE INHIBITION α-glutamic acid-p-nitroanilide substrate” value in assay [2] (inhibitor 1 mM) and in assay [2] (inhibitor 10 mM) were 78% and 85%, respectively.

`O=C(O)CN(CCN(CC(=O)O)CC(=O)O)CC(=O)O` [EDTA, ethylenediaminetetraacetic acid]: the “PERCENTAGE INHIBITION Leucine-p-nitroanilide substrate” value in assay [1] (inhibitor 1 mM, ConA H110D) worked out at 8%; in assay [1] (inhibitor 10 mM, ConA H110D), 16%. The “PERCENTAGE INHIBITION α-glutamic acid-p-nitroanilide substrate” value is 17% in assay [2] (inhibitor 1 mM) and 21% in assay [2] (inhibitor 10 mM).

For `CC(C)C[C@@H](N)[C@H](O)C(=O)N[C@H](C(=O)N[C@H](C(=O)N[C@@H](CC(=O)O)C(=O)O)C(C)C)C(C)C` [Amastatin], the “PERCENTAGE INHIBITION Leucine-p-nitroanilide substrate” value worked out at 61% in assay [1] (inhibitor 10 μM, ConA H110D) and 66% in assay [1] (inhibitor 50 μM, ConA H110D). The “PERCENTAGE INHIBITION α-glutamic acid-p-nitroanilide substrate” value in assay [2] (inhibitor 10 μM) and in assay [2] (inhibitor 50 μM) was 0% in each case.

Regarding `CC(C)C[C@H](NC(=O)[C@@H](O)[C@H](N)Cc1ccccc1)C(=O)O` [Bestatin], the “Reduction of activity against leucine-p-nitroanilide” value in assay [1] (ConA H110D, concentration recommended by the supplier) was “approximately 70%”. Besides, the “PERCENTAGE INHIBITION Leucine-p-nitroanilide substrate” value came to 63% in assay [1] (inhibitor 50 μM, ConA H110D) and 68% in assay [1] (inhibitor 100 μM, ConA H110D). Also, the “PERCENTAGE INHIBITION α-glutamic acid-p-nitroanilide substrate” value is 23% in assay [2] (inhibitor 50 μM) and 35% in assay [2] (inhibitor 100 μM).

The record behind these values is US6534638B1, “Recombinant DNA molecules encoding aminopeptidase enzymes and their use in the preparation of vaccines against helminth infections” (priority 1992, dated 2003).
